In US20100305098A1, “METHODS OF USE” (priority 2007, published 2010):

Tests used:
Assay in all cases: FLIPR functional screen
Format in all cases: cell-based
Conditions in all cases: antagonist mode
NK1 = target: T1, NK1 (Homo sapiens, UniProt P25103)
T1 construct: Millipore

CCR4 = target: T2, CCR4 (Homo sapiens, UniProt P51679)
T2 construct: Millipore

MOTILIN = target: T3, MOTILIN (Homo sapiens, UniProt O43193)
T3 construct: Millipore

OX1 = target: T4, OX1 (Homo sapiens, UniProt O43613)
T4 construct: Millipore

C5AR = target: T5, C5AR (Homo sapiens, UniProt P21730)
T5 construct: Millipore

SST4 = target: T6, SST4 (Homo sapiens, UniProt P31391)
T6 construct: Millipore

GPR40 = target: T7, GPR40 (Homo sapiens, UniProt O14842)
T7 construct: Millipore

MC4 = target: T8, MC4 (Homo sapiens, UniProt P32245)
T8 construct: Millipore

GAL1 = target: T9, GAL1 (Homo sapiens, UniProt P47211)
T9 construct: Millipore

GLP1 = target: T10, GLP1 (Homo sapiens, UniProt P43220)
T10 construct: Millipore

FPR2 = target: T11, FPR2 (Homo sapiens, UniProt P25090)
T11 construct: Millipore

5-HT2B = target: T12, 5-HT2B (Homo sapiens, UniProt P41595)
T12 construct: purchased Millipore (outsourced screen)

CCR2B = target: T13, CCR2B (Homo sapiens, UniProt P41597)
T13 construct: Millipore

BLT1 = target: T14, BLT1 (Homo sapiens, UniProt Q15722)
T14 construct: Millipore

CAS = target: T15, CAS (Homo sapiens, UniProt P41180)
T15 construct: Millipore

SST3 = target: T16, SST3 (Homo sapiens, UniProt P32745)
T16 construct: Millipore

CCR3 = target: T17, CCR3 (Homo sapiens, UniProt P51677)
T17 construct: Millipore

GPR41 = target: T18, GPR41 (Homo sapiens, UniProt O14843)
T18 construct: Millipore

BB3 = target: T19, BB3 (Homo sapiens, UniProt P32247)
T19 construct: Millipore

CCR6 = target: T20, CCR6 (Homo sapiens, UniProt P51684)
T20 construct: Millipore

PK2 = target: T21, PK2 (Homo sapiens, UniProt Q8NFJ6)
T21 construct: Millipore

GABA = target: T22, GABA (Homo sapiens, UniProt Q9UBS5)
T22 construct: Millipore

VPAC2 = target: T23, VPAC2 (Homo sapiens, UniProt P41587)
T23 construct: Millipore

LPA1 = target: T24, LPA1 (Homo sapiens, UniProt Q92633)
T24 construct: Millipore

LPA3 = target: T25, LPA3 (Homo sapiens, UniProt Q9UBY5)
T25 construct: Millipore

CB1 = target: T26, CB1 (Homo sapiens, UniProt P21554)
T26 construct: Millipore

CXCR3 = target: T27, CXCR3 (Homo sapiens, UniProt P49682)
T27 construct: Millipore

SST5 = target: T28, SST5 (Homo sapiens, UniProt P35346)
T28 construct: Millipore

GAL2 = target: T29, GAL2 (Homo sapiens, UniProt O43603)
T29 construct: Millipore

A2B = target: T30, A2B (Homo sapiens, UniProt P29275)
T30 construct: purchased Millipore (outsourced screen)

CCR1 = target: T31, CCR1 (Homo sapiens, UniProt P32246)
T31 construct: Millipore

PTH1 = target: T32, PTH1 (Homo sapiens, UniProt Q03431)
T32 construct: Millipore

5-HT1A = target: T33, 5-HT1A (Homo sapiens, UniProt P08908)
T33 construct: purchased Millipore (outsourced screen)

OPRK1 = target: T34, OPRK1 (Homo sapiens, UniProt P41145)
T34 construct: Millipore

A3 = target: T35, A3 (Homo sapiens, UniProt P0DMS8)
T35 construct: purchased Millipore (outsourced screen)

GIPR = target: T36, GIPR (Homo sapiens, UniProt P48546)
T36 construct: Millipore

SECRETIN = target: T37, SECRETIN (Homo sapiens, UniProt P47872)
T37 construct: Millipore

EP2 = target: T38, EP2 (Homo sapiens, UniProt P43116)
T38 construct: Millipore

CXCR2 = target: T39, CXCR2 (Homo sapiens, UniProt P25025)
T39 construct: Millipore

CYSLT2 = target: T40, CYSLT2 (Homo sapiens, UniProt Q9NS75)
T40 construct: Millipore

CRF2 = target: T41, CRF2 (Homo sapiens, UniProt Q13324)
T41 construct: Millipore

T39 sequence (P25025 whole entry, species assumed): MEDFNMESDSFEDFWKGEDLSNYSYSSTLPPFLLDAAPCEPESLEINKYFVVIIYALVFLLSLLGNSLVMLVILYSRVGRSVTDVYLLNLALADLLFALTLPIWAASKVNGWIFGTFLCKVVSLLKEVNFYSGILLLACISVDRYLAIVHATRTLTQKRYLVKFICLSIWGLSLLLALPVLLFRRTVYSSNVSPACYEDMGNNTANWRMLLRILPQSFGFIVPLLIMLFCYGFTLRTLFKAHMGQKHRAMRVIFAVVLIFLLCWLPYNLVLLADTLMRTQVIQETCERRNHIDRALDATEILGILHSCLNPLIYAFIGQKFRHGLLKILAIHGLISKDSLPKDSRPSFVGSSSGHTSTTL
T21 sequence (Q8NFJ6 whole entry): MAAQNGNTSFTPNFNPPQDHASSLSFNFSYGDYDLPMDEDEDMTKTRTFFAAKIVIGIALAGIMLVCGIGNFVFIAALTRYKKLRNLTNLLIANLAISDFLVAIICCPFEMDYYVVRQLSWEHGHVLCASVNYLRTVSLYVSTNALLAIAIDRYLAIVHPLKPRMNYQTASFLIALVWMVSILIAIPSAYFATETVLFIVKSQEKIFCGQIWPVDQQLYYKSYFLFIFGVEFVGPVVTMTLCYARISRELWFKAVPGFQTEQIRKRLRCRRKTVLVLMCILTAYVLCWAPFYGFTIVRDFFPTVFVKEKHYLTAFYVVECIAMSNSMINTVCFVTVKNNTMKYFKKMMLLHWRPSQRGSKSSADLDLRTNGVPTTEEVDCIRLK
T34 sequence (P41145 whole entry, species assumed): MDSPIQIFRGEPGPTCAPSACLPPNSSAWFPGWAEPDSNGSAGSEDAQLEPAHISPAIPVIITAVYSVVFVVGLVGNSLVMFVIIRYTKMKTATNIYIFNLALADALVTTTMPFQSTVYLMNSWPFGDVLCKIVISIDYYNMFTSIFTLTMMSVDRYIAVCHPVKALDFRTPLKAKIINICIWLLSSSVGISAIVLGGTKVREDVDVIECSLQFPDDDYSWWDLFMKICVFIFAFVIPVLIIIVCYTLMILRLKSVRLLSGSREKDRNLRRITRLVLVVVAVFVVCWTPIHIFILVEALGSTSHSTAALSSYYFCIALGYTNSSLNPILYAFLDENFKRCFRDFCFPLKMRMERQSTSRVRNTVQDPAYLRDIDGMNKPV
T26 sequence (P21554 whole entry, species assumed): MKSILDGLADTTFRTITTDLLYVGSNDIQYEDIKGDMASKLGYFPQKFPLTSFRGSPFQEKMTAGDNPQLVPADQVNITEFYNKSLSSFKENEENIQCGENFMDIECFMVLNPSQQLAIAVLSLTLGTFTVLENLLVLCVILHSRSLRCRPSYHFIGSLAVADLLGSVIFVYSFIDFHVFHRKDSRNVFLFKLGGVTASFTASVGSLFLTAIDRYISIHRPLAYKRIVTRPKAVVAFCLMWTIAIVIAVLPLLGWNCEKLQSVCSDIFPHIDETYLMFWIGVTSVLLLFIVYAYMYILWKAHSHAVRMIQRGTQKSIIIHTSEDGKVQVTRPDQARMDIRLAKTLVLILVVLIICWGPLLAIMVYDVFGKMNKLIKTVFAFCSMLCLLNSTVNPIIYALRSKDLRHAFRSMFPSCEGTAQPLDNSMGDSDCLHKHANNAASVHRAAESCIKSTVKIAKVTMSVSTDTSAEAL
T25 sequence (Q9UBY5 whole entry, species assumed): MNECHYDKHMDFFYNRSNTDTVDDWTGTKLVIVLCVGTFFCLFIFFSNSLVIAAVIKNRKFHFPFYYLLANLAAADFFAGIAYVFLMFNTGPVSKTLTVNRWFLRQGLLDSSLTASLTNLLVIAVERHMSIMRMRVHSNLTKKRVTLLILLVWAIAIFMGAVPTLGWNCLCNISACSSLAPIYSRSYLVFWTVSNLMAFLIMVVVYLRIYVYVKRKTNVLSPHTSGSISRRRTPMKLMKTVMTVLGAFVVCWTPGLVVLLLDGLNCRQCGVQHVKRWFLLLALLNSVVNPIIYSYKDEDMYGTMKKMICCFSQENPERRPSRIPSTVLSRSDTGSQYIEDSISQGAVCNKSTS
T15 sequence (P41180 20-1078): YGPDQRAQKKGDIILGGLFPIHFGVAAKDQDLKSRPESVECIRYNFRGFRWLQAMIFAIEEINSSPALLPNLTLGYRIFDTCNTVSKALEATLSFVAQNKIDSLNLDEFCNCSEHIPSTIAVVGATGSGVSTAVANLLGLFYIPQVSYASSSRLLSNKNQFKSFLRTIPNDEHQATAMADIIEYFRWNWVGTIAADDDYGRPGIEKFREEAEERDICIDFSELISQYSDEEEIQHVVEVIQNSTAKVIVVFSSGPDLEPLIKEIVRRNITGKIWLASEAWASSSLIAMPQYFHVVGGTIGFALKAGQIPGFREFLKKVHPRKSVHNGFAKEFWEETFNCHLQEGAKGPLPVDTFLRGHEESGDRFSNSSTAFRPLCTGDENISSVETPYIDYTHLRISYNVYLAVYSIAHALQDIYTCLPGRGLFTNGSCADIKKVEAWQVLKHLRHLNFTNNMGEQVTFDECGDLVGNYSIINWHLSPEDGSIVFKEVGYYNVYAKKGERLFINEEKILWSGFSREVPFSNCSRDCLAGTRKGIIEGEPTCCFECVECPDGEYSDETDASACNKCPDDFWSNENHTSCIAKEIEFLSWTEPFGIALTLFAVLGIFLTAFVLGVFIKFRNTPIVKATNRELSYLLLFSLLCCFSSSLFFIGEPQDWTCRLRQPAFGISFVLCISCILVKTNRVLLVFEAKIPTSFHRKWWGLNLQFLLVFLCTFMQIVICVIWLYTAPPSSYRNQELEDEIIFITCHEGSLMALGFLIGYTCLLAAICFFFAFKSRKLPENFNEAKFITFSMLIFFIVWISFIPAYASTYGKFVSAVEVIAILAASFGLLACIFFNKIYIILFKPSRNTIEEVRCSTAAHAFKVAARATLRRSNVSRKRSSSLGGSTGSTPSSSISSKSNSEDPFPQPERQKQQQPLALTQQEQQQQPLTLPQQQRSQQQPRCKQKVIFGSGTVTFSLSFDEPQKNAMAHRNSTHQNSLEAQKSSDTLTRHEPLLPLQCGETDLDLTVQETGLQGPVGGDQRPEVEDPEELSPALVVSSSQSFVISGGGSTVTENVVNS
T9 sequence (P47211 whole entry): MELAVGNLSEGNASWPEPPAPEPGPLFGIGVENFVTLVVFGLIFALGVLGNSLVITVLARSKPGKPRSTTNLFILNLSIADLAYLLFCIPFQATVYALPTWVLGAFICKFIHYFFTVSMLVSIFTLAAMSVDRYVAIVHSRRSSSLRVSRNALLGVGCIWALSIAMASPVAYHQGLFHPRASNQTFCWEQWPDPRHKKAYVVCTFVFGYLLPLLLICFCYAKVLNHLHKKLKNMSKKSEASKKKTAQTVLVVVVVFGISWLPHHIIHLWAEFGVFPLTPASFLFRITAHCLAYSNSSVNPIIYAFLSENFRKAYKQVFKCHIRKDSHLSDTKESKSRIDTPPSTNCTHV
T28 sequence (P35346 whole entry, species assumed): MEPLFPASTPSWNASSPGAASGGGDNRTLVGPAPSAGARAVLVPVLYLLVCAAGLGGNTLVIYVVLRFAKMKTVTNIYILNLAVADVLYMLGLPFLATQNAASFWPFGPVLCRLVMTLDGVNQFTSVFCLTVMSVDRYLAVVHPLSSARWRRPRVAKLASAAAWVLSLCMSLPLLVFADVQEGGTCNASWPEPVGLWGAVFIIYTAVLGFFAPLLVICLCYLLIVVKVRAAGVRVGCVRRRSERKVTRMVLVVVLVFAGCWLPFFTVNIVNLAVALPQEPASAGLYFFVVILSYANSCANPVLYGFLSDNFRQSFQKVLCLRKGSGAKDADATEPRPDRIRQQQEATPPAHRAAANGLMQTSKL
T4 sequence (O43613 whole entry): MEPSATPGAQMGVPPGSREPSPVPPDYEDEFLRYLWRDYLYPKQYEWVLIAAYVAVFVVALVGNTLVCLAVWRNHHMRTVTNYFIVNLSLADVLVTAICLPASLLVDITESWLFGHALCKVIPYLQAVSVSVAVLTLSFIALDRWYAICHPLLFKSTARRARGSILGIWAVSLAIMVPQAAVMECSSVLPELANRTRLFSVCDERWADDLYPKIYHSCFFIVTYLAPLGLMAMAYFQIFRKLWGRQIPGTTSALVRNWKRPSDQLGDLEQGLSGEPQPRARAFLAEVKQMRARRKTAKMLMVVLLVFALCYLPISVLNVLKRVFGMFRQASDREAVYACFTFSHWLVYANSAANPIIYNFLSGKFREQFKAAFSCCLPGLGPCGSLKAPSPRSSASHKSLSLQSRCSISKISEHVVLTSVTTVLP
T32 sequence (Q03431 27-593): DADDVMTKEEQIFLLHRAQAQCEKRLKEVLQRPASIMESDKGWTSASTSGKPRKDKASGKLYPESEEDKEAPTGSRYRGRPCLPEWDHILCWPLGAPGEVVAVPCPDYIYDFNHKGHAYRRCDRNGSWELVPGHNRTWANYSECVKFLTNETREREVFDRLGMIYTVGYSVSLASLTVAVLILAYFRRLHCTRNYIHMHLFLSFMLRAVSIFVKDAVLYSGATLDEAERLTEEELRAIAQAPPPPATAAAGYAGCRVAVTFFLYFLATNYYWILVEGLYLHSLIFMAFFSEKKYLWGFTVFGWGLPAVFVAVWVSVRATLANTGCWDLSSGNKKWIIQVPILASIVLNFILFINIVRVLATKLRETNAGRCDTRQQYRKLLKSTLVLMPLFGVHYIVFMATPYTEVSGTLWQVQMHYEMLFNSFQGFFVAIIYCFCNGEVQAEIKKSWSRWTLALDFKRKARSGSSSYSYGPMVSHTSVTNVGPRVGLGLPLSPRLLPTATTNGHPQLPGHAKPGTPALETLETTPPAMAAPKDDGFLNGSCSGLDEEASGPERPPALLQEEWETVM

Question: Which results are given for `CCN1C(=O)N2Cc3cc(OC)cc(OC)c3[C@@H](C)C=C2C12CCN(Cc1cccn1C)CC2` [ER-819924-01]?
Answer: inhibition at 1 µM (NK1): 2.9%; inhibition at 1 µM (CCR4): -13.4%; inhibition at 1 µM (MOTILIN): -0.9%; inhibition at 1 µM (OX1): 0.7%; inhibition at 1 µM (C5AR): 6.2%; inhibition at 1 µM (SST4): -2.8%; inhibition at 1 µM (GPR40): -4.6%; inhibition at 1 µM (MC4): -5.1%; inhibition at 1 µM (GAL1): 9.1%; inhibition at 1 µM (GLP1): 10.6%; inhibition at 1 µM (FPR2): 6.9%; inhibition at 1 µM (5-HT2B): 11.3%; inhibition at 1 µM (CCR2B): 3.7%; inhibition at 1 µM (BLT1): 2.2%; inhibition at 1 µM (CAS): 7.2%; inhibition at 1 µM (SST3): -19.7%; inhibition at 1 µM (CCR3): -5.6%; inhibition at 1 µM (GPR41): -7.3%; inhibition at 1 µM (BB3): 6.2%; inhibition at 1 µM (CCR6): -4.9%; inhibition at 1 µM (PK2): -3.8%; inhibition at 1 µM (GABA): 6%; inhibition at 1 µM (VPAC2): -3.7%; inhibition at 1 µM (LPA1): 8%; inhibition at 1 µM (LPA3): 9.6%; inhibition at 1 µM (CB1): 10.5%; inhibition at 1 µM (CXCR3): 3.2%; inhibition at 1 µM (SST5): 0.1%; inhibition at 1 µM (GAL2): 8.1%; inhibition at 1 µM (A2B): 6.9%; inhibition at 1 µM (CCR1): -8.2%; inhibition at 1 µM (PTH1): 3.9%; inhibition at 1 µM (5-HT1A): -1.6%; inhibition at 1 µM (OPRK1): 6.2%; inhibition at 1 µM (A3): 10.6%; inhibition at 1 µM (GIPR): -14.9%; inhibition at 1 µM (SECRETIN): 11.3%; inhibition at 1 µM (EP2): 4.2%; inhibition at 1 µM (CXCR2): 1.2%; inhibition at 1 µM (CYSLT2): 4.5%; inhibition at 1 µM (CRF2): -7%
